According to US7507727B2, “Substituted quinobenzoxazine analogs and methods of using thereof” (Cylene Pharmaceuticals, Inc., priority 2003, dated 2009):

Molecular target: c-Myc template DNA (c-myc quadruplex)
Assay: Quadruplex binding / stop assay (Taq polymerase arrest, capillary electrophoresis)
Details: read-out: S DATA; Table 1D, stop assay data

Row | SMILES | IC50 [nM]
1 | CN(C)CCCCNC(=O)c1cn2c3c(c(NCCN4CCOCC4)c(F)cc3c1=O)Oc1ccccc1-2 [compound 1610] | > 15000
2 | NCCCCNC(=O)c1cn2c3c(c(NCCN4CCOCC4)c(F)cc3c1=O)Oc1ccccc1-2 [compound 1611] | > 15000
3 | CN(C)CC(C)(C)CNC(=O)c1cn2c3c(c(NCCN4CCOCC4)c(F)cc3c1=O)Oc1ccccc1-2 [compound 1612] | > 15000
4 | O=C(c1cn2c3c(c(NCCN4CCOCC4)c(F)cc3c1=O)Oc1ccccc1-2)N1CCC(N2CCCC2)CC1 [compound 1613] | > 15000
5 | CN1CCN(C(=O)c2cn3c4c(c(NCCN5CCOCC5)c(F)cc4c2=O)Oc2ccccc2-3)CC1 [compound 1614] | > 15000
6 | CC1(C)CC(NC(=O)c2cn3c4c(c(NCCN5CCOCC5)c(F)cc4c2=O)Oc2ccccc2-3)CC(C)(C)N1 [compound 1615] | > 15000
7 | CN1CCCC1CCNC(=O)c1cn2c3c(c(N4CCC(N)CC4)c(F)cc3c1=O)Oc1cc3ccccc3cc1-2 (stereo not shown) [compound 1616] | 1750
8 | CN1CCCC1CCNC(=O)c1cn2c3c(c(NCC4CCNC4)c(F)cc3c1=O)Oc1cc3ccccc3cc1-2 (stereo not shown) [compound 1617] | 375
9 | CN1CCCC1CCNC(=O)c1cn2c3c(c(N4C[C@@H](N)[C@H](c5ccccc5)C4)c(F)cc3c1=O)Oc1cc3ccccc3cc1-2 (stereo partly shown) [compound 1618] | 750
10 | NC1CCN(c2c(F)cc3c(=O)c(C(=O)NCCCN4CCOCC4)cn4c3c2Oc2ccccc2-4)C1 (stereo not shown) [compound 1619] | > 15000
11 | NC1CCN(c2c(F)cc3c(=O)c(C(=O)NCCN4CCOCC4)cn4c3c2Oc2ccccc2-4)C1 (stereo not shown) [compound 1620] | > 15000
12 | CN1CCN(CCCNC(=O)c2cn3c4c(c(N5CCC(N)C5)c(F)cc4c2=O)Oc2ccccc2-3)CC1 (stereo not shown) [compound 1621] | 750
13 | NC1CCN(C(=O)c2cn3c4c(c(N5CCC(N)C5)c(F)cc4c2=O)Oc2ccccc2-3)C1 (stereo not shown) [compound 1622] | > 15000
14 | CN1CCCC1CCNC(=O)c1cn2c3c(c(N4CCC(N)C4)c(F)cc3c1=O)Oc1ccccc1-2 (stereo not shown) [compound 1623] | > 15000
15 | CN(C)CCCCNC(=O)c1cn2c3c(c(N4CCC(N)C4)c(F)cc3c1=O)Oc1ccccc1-2 (stereo not shown) [compound 1624] | 750
16 | CN(C)CC(C)(C)CNC(=O)c1cn2c3c(c(N4CCC(N)C4)c(F)cc3c1=O)Oc1ccccc1-2 (stereo not shown) [compound 1625] | > 15000
17 | CC1(C)CC(NC(=O)c2cn3c4c(c(N5CCC(N)C5)c(F)cc4c2=O)Oc2ccccc2-3)CC(C)(C)N1 (stereo not shown) [compound 1626] | > 15000
18 | CC(C)N1CCN(c2c(F)cc3c(=O)c(C(=O)N4CCC(N)C4)cn4c3c2Oc2ccccc2-4)CC1 (stereo not shown) [compound 1627] | > 15000
19 | CN1CCN(CCCNc2c(F)cc3c(=O)c(C(=O)N4CCC(N)C4)cn4c3c2Oc2ccccc2-4)CC1 (stereo not shown) [compound 1628] | > 15000
20 | NC1CCN(C(=O)c2cn3c4c(c(NCCN5CCCC5)c(F)cc4c2=O)Oc2ccccc2-3)C1 (stereo not shown) [compound 1629] | > 15000
21 | NC1CCN(C(=O)c2cn3c4c(c(NCCN5CCOCC5)c(F)cc4c2=O)Oc2ccccc2-3)C1 (stereo not shown) [compound 1630] | > 15000
22 | CN1CCN(CCCNc2c(F)cc3c(=O)c(C(=O)NCCCCNC(=N)N)cn4c3c2Oc2ccccc2-4)CC1 [compound 1631] | > 15000
23 | CC(C)(C)OC(=O)NC1CCN(c2c(F)cc3c(=O)c(C(=O)NCCCCNC(=N)N)cn4c3c2Oc2ccccc2-4)C1 (stereo not shown) [compound 1632] | > 15000

Row | SMILES | IC50 [nM]
24 | N=C(N)NCCCCNC(=O)c1cn2c3c(c(NCCN4CCCC4)c(F)cc3c1=O)Oc1ccccc1-2 [compound 1633] | > 15000
25 | N=C(N)NCCCCNC(=O)c1cn2c3c(c(NCCN4CCOCC4)c(F)cc3c1=O)Oc1ccccc1-2 [compound 1634] | > 15000
26 | NC1CCN(C(=O)c2cn3c4c(c(N5CC6CCCNC6C5)c(F)cc4c2=O)Oc2cc4ccccc4cc2-3)C1 (stereo not shown) [compound 1638] | 1750
27 | CN1CCN(CCCNC(=O)c2cn3c4c(c(N5CC6CCCNC6C5)c(F)cc4c2=O)Oc2cc4ccccc4cc2-3)CC1 (stereo not shown) [compound 1641] | 750
28 | O=C(c1cn2c3c(c(N4CC5CCCNC5C4)c(F)cc3c1=O)Oc1cc3ccccc3cc1-2)N1CCC(N2CCCC2)CC1 (stereo not shown) [compound 1643] | > 15000
29 | N=C(N)NCCCNC(=O)c1cn2c3c(c(N4CC5CCCNC5C4)c(F)cc3c1=O)Oc1cc3ccccc3cc1-2 (stereo not shown) [compound 1647] | 1000
30 | N=C(N)NCCCCNC(=O)c1cn2c3c(c(N4CC5CCCNC5C4)c(F)cc3c1=O)Oc1cc3ccccc3cc1-2 (stereo not shown) [compound 1648] | 1000
31 | N=C(N)NCCCCNC(=O)c1cn2c3c(c(NCCCN4CCOCC4)c(F)cc3c1=O)Oc1cc3ccccc3cc1-2 [compound 1650] | 1000
32 | N=C(N)NCC1CCCC(CNC(=O)c2cn3c4c(c(NCCCN5CCOCC5)c(F)cc4c2=O)Oc2cc4ccccc4cc2-3)C1 (stereo not shown) [compound 1651] | 1000
33 | CN(C)CC(C)(C)CNC(=O)c1cn2c3c(c(NCCCN4CCOCC4)c(F)cc3c1=O)Oc1cc3ccccc3cc1-2 [compound 1652] | 1000
34 | N=C(N)NCCNC(=O)c1cn2c3c(c(NCCN4CCCC4)c(F)cc3c1=O)Oc1cc3ccccc3cc1-2 [compound 1653] | 340
35 | N=C(N)NCCCNC(=O)c1cn2c3c(c(NCCN4CCCC4)c(F)cc3c1=O)Oc1cc3ccccc3cc1-2 [compound 1654] | 1000
36 | N=C(N)NCCCCNC(=O)c1cn2c3c(c(NCCN4CCCC4)c(F)cc3c1=O)Oc1cc3ccccc3cc1-2 [compound 1655] | 1000
37 | CC(O)CNc1c(F)cc2c(=O)c(C(=O)NCCC3CCCN3C)cn3c2c1Oc1cc2ccccc2cc1-3 (stereo not shown) [compound 1656] | 1750
38 | CN1CCCC1CCNC(=O)c1cn2c3c(c(NCCCCCO)c(F)cc3c1=O)Oc1cc3ccccc3cc1-2 (stereo not shown) [compound 1658] | 1750
39 | CCCCOCCCNc1c(F)cc2c(=O)c(C(=O)NCCC3CCCN3C)cn3c2c1Oc1cc2ccccc2cc1-3 (stereo not shown) [compound 1659] | 1750
40 | CN1CCCC1CCNC(=O)c1cn2c3c(c(NCCCN4CCCC4=O)c(F)cc3c1=O)Oc1cc3ccccc3cc1-2 (stereo not shown) [compound 1660] | 1800
41 | CN1CCCC1CCNC(=O)c1cn2c3c(c(NCCCCO)c(F)cc3c1=O)Oc1cc3ccccc3cc1-2 (stereo not shown) [compound 1661] | 1750
42 | CC(CNc1c(F)cc2c(=O)c(C(=O)NCCC3CCCN3C)cn3c2c1Oc1cc2ccccc2cc1-3)c1ccccc1 (stereo not shown) [compound 1662] | 1750
43 | COc1ccc(CCNc2c(F)cc3c(=O)c(C(=O)NCCC4CCCN4C)cn4c3c2Oc2cc3ccccc3cc2-4)cc1 (stereo not shown) [compound 1663] | 1750
44 | O=C(NCCN1CCCC1)c1cn2c3c(c(N4CCC(c5cnccn5)C4)c(F)cc3c1=O)Oc1cc3ccccc3cc1-2 (stereo not shown) [compound 1664] | 1120
45 | CN1CCCC1CCNC(=O)c1cn2c3c(c(NCCc4c[nH]c5ccccc45)c(F)cc3c1=O)Oc1cc3ccccc3cc1-2 (stereo not shown) [compound 1666] | 1750
46 | COc1ccc2c(CCNc3c(F)cc4c(=O)c(C(=O)NCCC5CCCN5C)cn5c4c3Oc3cc4ccccc4cc3-5)c[nH]c2c1 (stereo not shown) [compound 1667] | 1750

Row | SMILES | IC50 [nM]
47 | CN1CCCC1CCNC(=O)c1cn2c3c(c(NCC4CC(C)(C)N(O)C4(C)C)c(F)cc3c1=O)Oc1cc3ccccc3cc1-2 (stereo not shown) [compound 1668] | 375
48 | COc1cccc(CCNc2c(F)cc3c(=O)c(C(=O)NCCC4CCCN4C)cn4c3c2Oc2cc3ccccc3cc2-4)c1 (stereo not shown) [compound 1669] | 1750
49 | CN1CCCC1CCNC(=O)c1cn2c3c(c(NCCCn4ccnc4)c(F)cc3c1=O)Oc1cc3ccccc3cc1-2 (stereo not shown) [compound 1670] | 1000
50 | COc1ccc2[nH]cc(CCNc3c(F)cc4c(=O)c(C(=O)NCCC5CCCN5C)cn5c4c3Oc3cc4ccccc4cc3-5)c2c1 (stereo not shown) [compound 1671] | 1750
51 | COc1ccc(OC)c(CCNc2c(F)cc3c(=O)c(C(=O)NCCC4CCCN4C)cn4c3c2Oc2cc3ccccc3cc2-4)c1 (stereo not shown) [compound 1672] | 1750
52 | COc1cccc(CCNc2c(F)cc3c(=O)c(C(=O)NCCC4CCCN4C)cn4c3c2Oc2cc3ccccc3cc2-4)c1OC (stereo not shown) [compound 1673] | 2500
53 | CCOC(CCCNc1c(F)cc2c(=O)c(C(=O)NCCC3CCCN3C)cn3c2c1Oc1cc2ccccc2cc1-3)OCC (stereo not shown) [compound 1674] | 750
54 | CN1CCCC1CCNC(=O)c1cn2c3c(c(NCCCCCCO)c(F)cc3c1=O)Oc1cc3ccccc3cc1-2 (stereo not shown) [compound 1675] | > 15000
55 | CN1CCCC1CCNC(=O)c1cn2c3c(c(NCC(O)CO)c(F)cc3c1=O)Oc1cc3ccccc3cc1-2 (stereo not shown) [compound 1677] | 1750
56 | CN1CCCC1CCNC(=O)c1cn2c3c(c(NCCCO)c(F)cc3c1=O)Oc1cc3ccccc3cc1-2 (stereo not shown) [compound 1678] | 1750
57 | CCc1ccc(CCNc2c(F)cc3c(=O)c(C(=O)NCCC4CCCN4C)cn4c3c2Oc2cc3ccccc3cc2-4)cc1OC (stereo not shown) [compound 1679] | 690
58 | C[C@@H](O)CNc1c(F)cc2c(=O)c(C(=O)NCCC3CCCN3C)cn3c2c1Oc1cc2ccccc2cc1-3 (stereo partly shown) [compound 1682] | 750
59 | C[C@H](O)CNc1c(F)cc2c(=O)c(C(=O)NCCC3CCCN3C)cn3c2c1Oc1cc2ccccc2cc1-3 (stereo partly shown) [compound 1683] | 1750
60 | COc1ccccc1CCNc1c(F)cc2c(=O)c(C(=O)NCCC3CCCN3C)cn3c2c1Oc1cc2ccccc2cc1-3 (stereo not shown) [compound 1684] | > 15000
61 | CC1CCCN(CCCNc2c(F)cc3c(=O)c(C(=O)NCCC4CCCN4C)cn4c3c2Oc2cc3ccccc3cc2-4)C1 (stereo not shown) [compound 1685] | 1750
62 | CC1CCCC(C)N1CCCNc1c(F)cc2c(=O)c(C(=O)NCCC3CCCN3C)cn3c2c1Oc1cc2ccccc2cc1-3 (stereo not shown) [compound 1687] | 1750
63 | CN1CCCC1CCNC(=O)c1cn2c3c(c(NCCCNC(=O)OC(C)(C)C)c(F)cc3c1=O)Oc1cc3ccccc3cc1-2 (stereo not shown) [compound 1689] | 1750
64 | CCCCN1CCC(CNc2c(F)cc3c(=O)c(C(=O)NCCC4CCCN4C)cn4c3c2Oc2cc3ccccc3cc2-4)CC1 (stereo not shown) [compound 1691] | 1000
65 | CCCCOCCCNC(=O)c1cn2c3c(c(N4CCC(N)C4)c(F)cc3c1=O)Oc1cc3ccccc3cc1-2 (stereo not shown) [compound 1692] | > 15000
66 | NC1CCN(c2c(F)cc3c(=O)c(C(=O)NCC4CCCO4)cn4c3c2Oc2cc3ccccc3cc2-4)C1 (stereo not shown) [compound 1693] | > 15000
67 | NC1CCN(c2c(F)cc3c(=O)c(C(=O)NCCCN4CCCC4=O)cn4c3c2Oc2cc3ccccc3cc2-4)C1 (stereo not shown) [compound 1694] | > 15000
